Assay results from PubChem BioAssay (NCI).
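These data come from cells grown in 96-well plates and exposed to compound for 48 hours at five concentrations. TGI denotes the concentration required for complete inhibition of growth.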

Experiments:
Experiment in all cases: NCI anticancer screen, dose series, 48 h
DMS 273 small cell lung = test system: DMS 273 small cell lung
DLD-1 colon = test system: DLD-1 colon
HOP-18 NSCLC = test system: HOP-18 NSCLC
M19-MEL melanoma = test system: M19-MEL melanoma
KM20L2 colon = test system: KM20L2 colon
LXFL 529 NSCLC = test system: LXFL 529 NSCLC
XF 498 CNS = test system: XF 498 CNS
SNB-78 CNS = test system: SNB-78 CNS
RXF-631 renal = test system: RXF-631 renal

SMILES	TGI (DMS 273 small cell lung)	TGI (DLD-1 colon)	TGI (HOP-18 NSCLC)	TGI (M19-MEL melanoma)	TGI (KM20L2 colon)	TGI (LXFL 529 NSCLC)	TGI (XF 498 CNS)	TGI (SNB-78 CNS)	TGI (RXF-631 renal)
COc1ccc(-c2nc3c(nc2-c2ccc(OC)cc2)N(C)S(=O)(=O)N=C3N)cc1	> 100 µM	> 100 µM	> 100 µM	> 100 µM	> 100 µM	> 100 µM	–	–	–
O=[N+]([O-])c1ccc(COc2cccc3cccnc23)cc1	20.8 µM	71.2 µM	> 100 µM	38.2 µM	> 100 µM	> 100 µM	67.5 µM	> 100 µM	33.3 µM
COc1cc2cc3c4c(cc(OC)c(OC)c4c2cc1OC)CCN3C(=O)CCC(=O)O	> 100 µM	> 100 µM	–	–	> 100 µM	> 100 µM	–	> 100 µM	–
CN=C(NC)N(C)c1nc(=[N+](C)C)ss1	> 100 µM	–	–	–	–	> 100 µM	–	> 100 µM	–
Cc1cc(C)c(C(=O)/C=C/c2ccccc2)c(C)c1	–	68.9 µM	> 100 µM	> 100 µM	96.9 µM	> 100 µM	26.5 µM	–	–
CCN(CC)CC(=O)Nc1ccc2c(c1)C(=O)c1ccc(NC(=O)CN(CC)CC)cc1C2=O	> 100 µM	> 100 µM	–	> 100 µM	> 100 µM	49 µM	–	> 100 µM	–
COC1=CC(=O)NCCN1	> 100 µM	> 100 µM	> 100 µM	> 100 µM	> 100 µM	> 100 µM	> 100 µM	> 100 µM	> 100 µM
CC1=C/C(=C2/N=C(N(C)C)SS2)C(C)=N1	> 100 µM	> 100 µM	> 100 µM	> 100 µM	> 100 µM	> 100 µM	> 100 µM	> 100 µM	–
CCCCc1c2c(nc3c1CC/C(=C\c1ccc([N+](=O)[O-])cc1)C3=O)CCCC2	3.78 µM	3.42 µM	–	4.59 µM	4.01 µM	2.68 µM	–	4.38 µM	–
Clc1cccc2c1OCC1C(c3ccccc3)=NN(c3ccccc3)C21 (configuration not stated)	> 100 µM	> 100 µM	> 100 µM	> 100 µM	> 100 µM	> 100 µM	> 100 µM	> 100 µM	> 100 µM
